From patent US10906897B2, “Microbiocidal heterobicyclic derivatives” (priority 2015, dated 2021) come the findings set out here.

For series [1], the system named is Botryotinia fuckeliana (Botrytis cinerea). The series is described as follows: Botryotinia fuckeliana (Botrytis cinerea) / liquid culture (Gray mould). The series is classed as cell-based. Conditions: growth inhibition photometrically 3-4 days after application, compared to untreated control.
Series [2] has as its system Glomerella lagenarium (Colletotrichum lagenarium). The series is described as follows: Glomerella lagenarium (Colletotrichum lagenarium) / liquid culture (Anthracnose). In kind it is cell-based. The conditions noted are these: Colletotrichum orbiculare, growth inhibition photometrically 3-4 days after application, compared to untreated control.
In series [3] the test system is Fusarium culmorum. Nature of the series: microbe, parasite or virus in culture. In kind it is cell-based. Conditions: read-out: control of Fusarium culmorum.
In series [4] the test system is Gaeumannomyces graminis. The series is described as follows: Gaeumannomyces graminis / liquid culture (Take-all of cereals). Conditions: growth inhibition photometrically 4-5 days after application, compared to untreated control. The series is classed as cell-based.
Series [5] relates to Monographella nivalis (Microdochium nivale). The series is described as follows: Monographella nivalis (Microdochium nivale) / liquid culture (foot rot cereals). In kind it is cell-based. The conditions noted are these: 96 h, growth inhibition photometrically 4-5 days after application, compared to untreated control.
Series [6] has as its system Magnaporthe grisea (Pyricularia oryzae). The series is described as follows: whole plant or invertebrate. In kind it is in vivo. The conditions noted are these: foliar, read-out: control of Magnaporthe grisea.
For series [7] the test system is unchanged. The series is described as follows: microbe, parasite or virus in culture. In kind it is cell-based. The conditions noted are these: read-out: control of Magnaporthe grisea.
Series [8] deals with Sclerotinia sclerotiorum. Nature of the series: Sclerotinia sclerotiorum / liquid culture (cottony rot). The conditions noted are these: read-out: control of Sclerotinia sclerotiorum.
Method: Sclerotinia sclerotiorum/Liquid Culture (Cottony Rot)
Mycelia fragments of a newly grown liquid culture of the fungus are directly mixed into 5 nutrient broth (Vogels broth). After placing a (DMSO) solution of test compound into a microtiter plate (96-well format) the nutrient broth containing the fungal material is added. The test plates are incubated at 24° C. and the inhibition of growth is determined photometrically 3-4 days after application.

In general, melting point refers to the temperature of the solid-liquid transition. `COc1cccc2c(C3=NC(C)(C)C(F)(F)c4ccccc43)cnn12` [Compound E-92, 4,4-difluoro-1-(7-methoxypyrazolo[1,5-a]pyridin-3-yl)-3,3-dimethyl-isoquinoline] gave a melting point of 120 to 124 °C. The inhibition of growth at 20 ppm in [1] was not below 80%. This compound also registered an inhibition of growth at 20 ppm in series [2] not below 80%. Moreover, the inhibition of growth at 20 ppm in series [3] was not below 80%. The inhibition of growth at 20 ppm in series [4] was not below 80%. In addition, in series [5], the inhibition of growth at 20 ppm was not below 80%. Also, the pest or weed control at 200 ppm in series [6] was not below 50%. In addition, in [7], the inhibition of growth at 60 ppm is not below 80%.

Consider `Cc1ccc2c(C3=NC(C)(C)C(F)(F)c4ccccc43)cnn2c1C` [Compound E-65, 1-(6,7-dimethylpyrazolo[1,5-a]pyridin-3-yl)-4,4-difluoro-3,3-dimethyl-isoquinoline], for which the inhibition of growth at 20 ppm in series [1], in series [2], in series [3], in series [4], in series [5] and in [8] was not below 80% each time. Moreover, the inhibition of growth at 60 ppm in [7] was not below 80%.

In the case of `Cc1ccn2c(C3=NC(C)(C)C(C)(C)c4c(F)cccc43)cnc2c1C` [Compound E-50, 1-(7,8-dimethylimidazo[1,2-a]pyridin-3-yl)-5-fluoro-3,3,4,4-tetramethyl-isoquinoline], the melting point was in the range of 185 to 186 °C. Also, in series [1], the inhibition of growth at 20 ppm is not below 80%. This compound gave an inhibition of growth at 20 ppm in series [2] not below 80%. For the same compound, the inhibition of growth at 20 ppm in [3] is not below 80%. For the same compound, the inhibition of growth at 60 ppm in series [7] was not below 80%. Moreover, in [8], the inhibition of growth at 20 ppm is not below 80%.

Turning to `Cc1ccc2c(C3=NC(C)(C)C(F)(F)c4cc(F)ccc43)cnn2c1C` [Compound E-70, 1-(6,7-dimethylpyrazolo[1,5-a]pyridin-3-yl)-4,4,6-trifluoro-3,3-dimethyl-isoquinoline], the inhibition of growth at 20 ppm in [1], in series [2], in [3], in series [5] and in series [8] was not below 80% throughout. Besides, the pest or weed control at 200 ppm in series [6] was not below 50%. For the same compound, the inhibition of growth at 60 ppm in [7] was not below 80%.

`Cc1ccn2c(C3=NC(C)(C)C(F)(F)c4ccccc43)cnc2c1C` [Compound E-57, 1-(7,8-dimethylimidazo[1,2-a]pyridin-3-yl)-4,4-difluoro-3,3-dimethyl-isoquinoline]: the melting point lay within 159 to 161 °C. Besides, the inhibition of growth at 20 ppm in series [1] is not below 80%. In series [2], the inhibition of growth at 20 ppm was not below 80%. The inhibition of growth at 20 ppm in series [3] is not below 80%. Moreover, in series [5], the inhibition of growth at 20 ppm was not below 80%. Besides, in series [6], the pest or weed control at 200 ppm is not below 50%. The inhibition of growth at 60 ppm in [7] was not below 80%. The inhibition of growth at 20 ppm in series [8] was not below 80%.

On to `Cc1cccc2c(C3=NC(C)(C)C(F)(F)c4ccccc43)cnn12` [Compound E-66, 4,4-difluoro-3,3-dimethyl-1-(7-methylpyrazolo[1,5-a]pyridin-3-yl)isoquinoline], for which the inhibition of growth at 20 ppm in series [1], in series [2], in series [3], in [4], in series [5] and in series [8] was not below 80% in each case. Further, the pest or weed control at 200 ppm in [6] is not below 50%. In addition, the inhibition of growth at 60 ppm in series [7] is not below 80%.

As for `Cc1ccc2c(C3=NC(C)(C)C(C)(C)c4c(F)cccc43)cnn2c1C` [Compound E-63, 1-(6,7-dimethylpyrazolo[1,5-a]pyridin-3-yl)-5-fluoro-3,3,4,4-tetramethyl-isoquinoline], the melting point fell in the range of 175 to 176 °C. Also, the inhibition of growth at 20 ppm in [1] was not below 80%. The same compound returned an inhibition of growth at 20 ppm in series [2] not below 80%. In addition, in [3], the inhibition of growth at 20 ppm was not below 80%. The same compound registered an inhibition of growth at 20 ppm in series [4] not below 80%. Also, the pest or weed control at 200 ppm in series [6] was not below 50%. For the same compound, in series [7], the inhibition of growth at 60 ppm is not below 80%.

With `Cc1ccc2c(C3=NC4(CC4)C4(CC4)c4ccccc43)cnn2c1C` [Compound E-94], the inhibition of growth at 20 ppm in series [2], in series [3], in series [4] and in series [5] was not below 80% throughout. The pest or weed control at 200 ppm in [6] is not below 50%. In series [7], the inhibition of growth at 60 ppm was not below 80%.

For `Cc1cccn2c(C3=NC4(CCC4)Cc4ccccc43)cnc12` [Compound E-52, 1-(8-methylimidazo[1,2-a]pyridin-3-yl)spiro[4H-isoquinoline-3,1′-cyclobutane]], the inhibition of growth at 20 ppm in [1], in series [2], in series [5] and in series [8] was not below 80% in each case. Moreover, in series [7], the inhibition of growth at 60 ppm is not below 80%.

As to `Cc1cccn2c(C3=NCC(C)(C)c4ccccc43)cnc12` [Compound E-51, 4,4-dimethyl-1-(8-methylimidazo[1,2-a]pyridin-3-yl)-3H-isoquinoline], the inhibition of growth at 20 ppm in series [1] and in [8] was not below 80% each time. For the same compound, the inhibition of growth at 60 ppm in series [7] is not below 80%.

In the case of `Cc1ccn2c(C3=NC(C)(C)C(F)(F)c4ccccc43)cnc2c1` [Compound E-55, 4,4-difluoro-3,3-dimethyl-1-(7-methylimidazo[1,2-a]pyridin-3-yl)isoquinoline], the inhibition of growth at 20 ppm in series [1], in series [2], in series [3] and in series [8] was not below 80% in each case. Moreover, the inhibition of growth at 60 ppm in series [7] is not below 80%.

Consider `Cc1ccc2c(C3=NC(C)(C)C(F)(F)c4c(F)cccc43)cnn2c1C` [Compound E-71, 1-(6,7-dimethylpyrazolo[1,5-a]pyridin-3-yl)-4,4,5-trifluoro-3,3-dimethyl-isoquinoline], for which the inhibition of growth at 20 ppm in [1], in series [2], in [3], in [4], in series [5] and in series [8] was not below 80% each time. Moreover, the pest or weed control at 200 ppm in series [6] was not below 50%. For the same compound, the inhibition of growth at 60 ppm in series [7] is not below 80%.

Take `Cc1c(Br)ccc2c(C3=NC(C)(C)C(F)(F)c4ccccc43)cnn12` [Compound E-79, 1-(6-bromo-7-methyl-pyrazolo[1,5-a]pyridin-3-yl)-4,4-difluoro-3,3-dimethyl-isoquinoline]: the melting point is 180 to 182 °C. In [1], the inhibition of growth at 20 ppm is not below 80%. For the same compound, in series [2], the inhibition of growth at 20 ppm is not below 80%. Besides, the inhibition of growth at 20 ppm in series [3] is not below 80%. The compound further displayed an inhibition of growth at 20 ppm in [4] not below 80%. The inhibition of growth at 60 ppm in [7] is not below 80%. For the same compound, the inhibition of growth at 20 ppm in [8] was not below 80%.

Take `Cc1ccc2c(C3=NC(C)(C)C(=O)c4c(F)cccc43)cnn2c1C` [Compound E-72, 1-(6,7-dimethylpyrazolo[1,5-a]pyridin-3-yl)-5-fluoro-3,3-dimethyl-isoquinolin-4-one]: the melting point was 139 to 141 °C. Further, the inhibition of growth at 20 ppm in series [1] was not below 80%. In addition, the inhibition of growth at 20 ppm in [2] is not below 80%. Also, the inhibition of growth at 20 ppm in [3] was not below 80%. In series [5], this compound came in with an inhibition of growth at 20 ppm not below 80%. Moreover, in series [7], the inhibition of growth at 60 ppm was not below 80%. Besides, in series [8], the inhibition of growth at 20 ppm was not below 80%.

Turning to `CC1(C)N=C(c2cnn3cccc(F)c23)c2ccccc2C1(F)F` [Compound E-89, 4,4-difluoro-1-(4-fluoropyrazolo[1,5-a]pyridin-3-yl)-3,3-dimethyl-isoquinoline], the inhibition of growth at 20 ppm in series [1], in series [2], in series [3], in series [5] and in [8] was not below 80% throughout. For the same compound, the inhibition of growth at 60 ppm in series [7] is not below 80%.

For `Cc1ccc2c(C3=NC(C)(C)C(=O)c4ccccc43)cnn2c1C` [Compound E-64, 1-(6,7-dimethylpyrazolo[1,5-a]pyridin-3-yl)-3,3-dimethyl-isoquinolin-4-one], the melting point lay in the range of 152 to 153 °C. This compound also yielded an inhibition of growth at 20 ppm in series [1] not below 80%. For the same compound, the inhibition of growth at 20 ppm in [2] was not below 80%. Moreover, in [3], the inhibition of growth at 20 ppm is not below 80%. In series [4], this compound showed an inhibition of growth at 20 ppm not below 80%. In series [5], the inhibition of growth at 20 ppm is not below 80%. Besides, the inhibition of growth at 60 ppm in [7] is not below 80%. In addition, the inhibition of growth at 20 ppm in [8] was not below 80%.

The compound `Cc1cccc2c(C3=NC(C)(C)C(=O)c4ccccc43)cnn12` [Compound E-67, 3,3-dimethyl-1-(7-methylpyrazolo[1,5-a]pyridin-3-yl)isoquinolin-4-one] gave a melting point of 110 to 112 °C. This compound came in with an inhibition of growth at 20 ppm in [1] not below 80%. For the same compound, in series [2], the inhibition of growth at 20 ppm was not below 80%. Besides, the inhibition of growth at 20 ppm in series [3] was not below 80%. In series [5], this compound came in with an inhibition of growth at 20 ppm not below 80%. In [7], the inhibition of growth at 60 ppm was not below 80%. The inhibition of growth at 20 ppm in series [8] is not below 80%.
